# Values quoted from earlier work as cited in patent publication US8569328B1, “Compositions and methods comprising tilidine or related compounds and dextromethorphan” (Antecip Bioventures II LLC, priority 2011, dated 2013).
# Experiments:
# [1] = three large multicenter randomized studies; dextromethorphan added to morphine
# [2] = biological target: cytochrome P450 isozyme CYP2D6 (Homo sapiens, UniProt P10635); settings: in vitro
# Sequence of cytochrome P450 isozyme CYP2D6 (P10635 whole entry): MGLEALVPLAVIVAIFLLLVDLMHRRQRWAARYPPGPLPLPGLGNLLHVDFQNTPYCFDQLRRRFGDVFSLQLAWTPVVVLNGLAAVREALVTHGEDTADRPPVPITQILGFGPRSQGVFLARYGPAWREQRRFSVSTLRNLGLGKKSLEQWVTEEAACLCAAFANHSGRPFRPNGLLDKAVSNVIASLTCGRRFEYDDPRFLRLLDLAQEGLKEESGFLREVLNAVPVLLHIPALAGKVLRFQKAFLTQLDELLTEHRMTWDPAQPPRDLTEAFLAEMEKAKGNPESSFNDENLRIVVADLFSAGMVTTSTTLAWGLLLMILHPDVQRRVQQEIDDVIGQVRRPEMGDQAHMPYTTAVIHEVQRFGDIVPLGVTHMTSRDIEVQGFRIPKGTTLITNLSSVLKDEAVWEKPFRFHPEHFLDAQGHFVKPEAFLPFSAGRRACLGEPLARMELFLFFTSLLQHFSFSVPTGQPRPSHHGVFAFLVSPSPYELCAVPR
Molecule,benefit from the addition of dextromethorphan to morphine (enhancement of opioid analgesia) [1],inhibition of cytochrome P450 isozymes including CYP2D6 [2]
COc1ccc2c(c1)[C@]13CCCC[C@@H]1[C@H](C2)N(C)CC3 [dextromethorphan],failed to show any benefit,
CCOC(=O)C1(c2ccccc2)CCC=CC1N(C)C (stereo not drawn) [tilidine],,inhibit
nortilidine,,inhibit
